Tested on: HIV-1 (IIIB) in MT-4 cells
Experiment: microbe, parasite or virus in culture
Type: cell-based
Conditions: Human immunodeficiency virus 1, IIIB, MT4, MT-4 cells, HIV-1; read-out: MT4 EC50

Row | SMILES | EC50
1 | CC(C)(C)C[C@]1(c2ccc(-c3cnn(S(C)(=O)=O)c3)c(F)c2)NC(=N)N([C@H](COC(=O)NC2(C(F)F)CC2)c2ccc(Cl)c(-n3ncnc3C(F)F)c2)C1=O [Compound 303] | 11.2 nM
2 | CC(C)(C[C@]1(c2ccc(-c3cnn(S(C)(=O)=O)c3)cc2)NC(=N)N([C@H](COC(=O)NC2(C(F)(F)F)CC2)c2ccc(Cl)c(-n3ncnc3C(F)F)c2)C1=O)C(F)(F)F [Compound 308] | 16.3 nM
3 | CC(C)(C)C[C@]1(c2ccc(-c3cccc(S(C)(=O)=O)c3)c(F)c2)NC(=N)N([C@H](COC(=O)NC2(C(F)(F)F)CC2)c2ccc(Cl)c(-n3ncnc3C(F)F)c2)C1=O [Compound 312] | 27.8 nM
4 | CC(C)(C)C[C@]1(c2ccc(-c3cnn(C4CC4)c3)cc2Cl)NC(=N)N([C@H](COC(=O)NC2(C(F)(F)F)CC2)c2ccc(Cl)c(-n3ncnc3C(F)F)c2)C1=O [Compound 317] | 99.1 nM
5 | CC(C)(C#N)C[C@]1(c2ccc(-c3ccn(C(F)F)n3)cc2)NC(=N)N([C@H](COC(=O)NC2(C(F)(F)F)CC2)c2ccc(Cl)c(-n3ncnc3C(F)F)c2)C1=O [Compound 336] | 74.7 nM
6 | CC(C)(C)C[C@]1(c2ccc(-c3cnn(C(F)F)c3)c(F)c2)NC(=N)N([C@H](COC(=O)N[C@@H]2CC2(F)F)c2ccc(Cl)c(-n3ncnc3C(F)F)c2)C1=O [Compound 339] | 9.09 nM
7 | C[C@H](NC(=O)OC[C@H](c1ccc(Cl)c(-n2ncnc2C(F)F)c1)N1C(=N)N[C@](CC(C)(C)C)(c2ccc(-c3cnn(C(F)F)c3)cc2)C1=O)C(F)F [Compound 344] | 12.1 nM
8 | CC(C[C@]1(c2ccc(-c3cnn(C(F)F)c3)cc2)NC(=N)N([C@H](COC(=O)NC2(C(F)(F)F)CC2)c2ccc(Cl)c(-n3ncnc3C(F)F)c2)C1=O)CS(C)(=O)=O (some centres unmarked) [Compound 345] | 134 nM
9 | CC(C)(C)C[C@]1(c2ccc3nc(-c4cnn(C(F)F)c4)ccc3c2)NC(=N)N([C@H](COC(=O)NC2(C(F)(F)F)CC2)c2ccc(Cl)c(-n3ncnc3C(F)F)c2)C1=O [Compound 350] | 8.9 nM
10 | CC(C)(C)C[C@]1(c2ccc(-n3ccnn3)cc2)NC(=N)N([C@H](COC(=O)NC2(C(F)(F)F)CC2)c2ccc(Cl)c(-n3ncnc3C(F)F)c2)C1=O [Compound 351] | 17.9 nM
11 | CC(C)(C)C[C@]1(c2ccc(-c3cn(C4CC4)nn3)c(F)c2)NC(=N)N([C@H](COC(=O)NC2(C(F)(F)F)CC2)c2ccc(Cl)c(-n3ncnc3C(F)F)c2)C1=O [Compound 352] | 10.9 nM
12 | CC(C)(C)C[C@]1(c2ccc(-n3cnnc3)cc2)NC(=N)N([C@H](COC(=O)NC2(C(F)(F)F)CC2)c2ccc(Cl)c(-n3ncnc3C(F)F)c2)C1=O [Compound 359] | 424 nM
13 | CC(C)(C)C[C@]1(c2ccc(C#Cc3cnn(C(F)F)c3)c(F)c2)NC(=N)N([C@H](COC(=O)NC2(C(F)(F)F)CC2)c2ccc(Cl)c(-n3ncnc3C(F)F)c2)C1=O [Compound 361] | 82 nM
14 | C[C@H](NC(=O)OC[C@H](c1ccc(Cl)c(-n2ncnc2C(F)F)c1)N1C(=N)N[C@](CC(C)(C)C)(c2ccc(-c3cn(C4(C(F)(F)F)CC4)nn3)cc2)C1=O)C(F)(F)F [Compound 363] | 11.7 nM
15 | CC(C)(C)C[C@]1(c2ccc(-c3cn[nH]n3)cc2)NC(=N)N([C@H](COC(=O)NC2(C(F)(F)F)CC2)c2ccc(Cl)c(-n3ncnc3C(F)F)c2)C1=O [Compound 372] | 47.3 nM
16 | CC(C)(C)C[C@]1(c2ccc(-c3cnn(C4CC4)n3)cc2)NC(=N)N([C@H](CNS(=O)(=O)C2CC2)c2ccc(Cl)c(-n3ncnc3C(F)F)c2)C1=O [Compound 387] | 47.9 nM
17 | CC(C)(C[C@]1(c2ccc(-c3cnn(C4CC4)n3)cc2)NC(=N)N([C@H](CNC(=O)CC(F)(F)F)c2ccc(Cl)c(-n3ncnc3C(F)F)c2)C1=O)C(F)(F)F [Compound 391] | 12.5 nM
18 | CC(C)(C[C@]1(c2ccc(-c3cnn(C4CC4)n3)cc2)NC(=N)N([C@H](CNC(=O)OC2CC2)c2ccc(Cl)c(-n3ncnc3C(F)F)c2)C1=O)C(F)(F)F [Compound 392] | 24.3 nM

Same assay, conditions: Human immunodeficiency virus 1, IIIB, MT4, read-out: MT4 EC50 (nM)

Row | SMILES | EC50
19 | CC(C)(C)C[C@]1(c2ccc(-c3cnn(C(F)F)c3)cc2)NC(=N)N([C@H](COC(=O)NC2(C(F)F)CC2)c2ccc(Cl)c(-n3ncnc3C(F)F)c2)C1=O [Compound 179] | 9.37 nM

Tested on: not listed separately
Experiment: Liver microsomal stability, human liver microsomes
Conditions: human, human liver microsomes
Protocol: Liver Microsomal Stability Protocol
Test compounds and one control compound (verapamil) were tested in 3 different species in duplicate sets.
Test compound concentration: 1 uM; Protein concentration: 0.5 mg/mL (for dog, rat, and human liver microsomes); Cofactor: NADPH-Regenerating system (NRS) solution; Time-points: 2, 12, 25, 45, and 65 minutes.
Reaction Composition (in Each Incubation Well) Contains:
At an incubation temperature of 37° C., the reaction was started with addition of NADPH Regeneration System, at each time point, 25 uL of the reaction mixture was removed and added to a plate with 225 uL quenching solution (50% MeOH, 25% ACN, 25% H2O, and 200 nM labetalol as internal standard). After plates were vortexed, they were centrifuged for 30 minutes to remove proteins. About 100 μL supernatant was removed to a new plate and diluted with 150 μL water. About 20 μL of the mixture was injected into LC/MS/MS system to monitor the compound's response. In vitro measured t1/2 was used to calculate Clint values.

Row | half-life at 1 uM | SMILES
20 | ≥ 6.58 h | CC(C)(C)C[C@]1(c2ccc(-n3ccnn3)cc2)NC(=N)N([C@H](COC(=O)NC2(C(F)(F)F)CC2)c2ccc(Cl)c(-n3ncnc3C(F)F)c2)C1=O [Compound 351]

Same assay, conditions: human, liver microsomes

Row | SMILES | half-life at 1 uM
21 | CC(C)(C#N)C[C@]1(c2ccc(-c3ccn(C(F)F)n3)cc2)NC(=N)N([C@H](COC(=O)NC2(C(F)(F)F)CC2)c2ccc(Cl)c(-n3ncnc3C(F)F)c2)C1=O [Compound 336] | ≥ 6.58 h
22 | CC(C)(C)C[C@]1(c2ccc(-c3cnn(C(F)F)c3)c(F)c2)NC(=N)N([C@H](COC(=O)N[C@@H]2CC2(F)F)c2ccc(Cl)c(-n3ncnc3C(F)F)c2)C1=O [Compound 339] | ≥ 6.58 h
23 | C[C@H](NC(=O)OC[C@H](c1ccc(Cl)c(-n2ncnc2C(F)F)c1)N1C(=N)N[C@](CC(C)(C)C)(c2ccc(-c3cnn(C(F)F)c3)cc2)C1=O)C(F)F [Compound 344] | ≥ 6.58 h
24 | CC(C[C@]1(c2ccc(-c3cnn(C(F)F)c3)cc2)NC(=N)N([C@H](COC(=O)NC2(C(F)(F)F)CC2)c2ccc(Cl)c(-n3ncnc3C(F)F)c2)C1=O)CS(C)(=O)=O (some centres unmarked) [Compound 345] | ≥ 6.58 h
25 | C[C@H](NC(=O)OC[C@H](c1ccc(Cl)c(-n2ncnc2C(F)F)c1)N1C(=N)N[C@](CC(C)(C)C)(c2ccc(-c3cn(C4(C(F)(F)F)CC4)nn3)cc2)C1=O)C(F)(F)F [Compound 363] | ≥ 6.58 h
26 | CC(C)(C)C[C@]1(c2ccc(-c3cnn(C4CC4)n3)cc2)NC(=N)N([C@H](CNS(=O)(=O)C2CC2)c2ccc(Cl)c(-n3ncnc3C(F)F)c2)C1=O [Compound 387] | ≥ 6.58 h
27 | CC(C)(C[C@]1(c2ccc(-c3cnn(C4CC4)n3)cc2)NC(=N)N([C@H](CNC(=O)CC(F)(F)F)c2ccc(Cl)c(-n3ncnc3C(F)F)c2)C1=O)C(F)(F)F [Compound 391] | ≥ 6.58 h
28 | CC(C)(C[C@]1(c2ccc(-c3cnn(C4CC4)n3)cc2)NC(=N)N([C@H](CNC(=O)OC2CC2)c2ccc(Cl)c(-n3ncnc3C(F)F)c2)C1=O)C(F)(F)F [Compound 392] | ≥ 6.58 h

Continued, values first:

Row | half-life at 1 uM | SMILES
29 | ≥ 6.58 h | CC(C)(C)C[C@]1(c2ccc(-c3cnn(S(C)(=O)=O)c3)c(F)c2)NC(=N)N([C@H](COC(=O)NC2(C(F)F)CC2)c2ccc(Cl)c(-n3ncnc3C(F)F)c2)C1=O [Compound 303]
30 | ≥ 6.58 h | CC(C)(C[C@]1(c2ccc(-c3cnn(S(C)(=O)=O)c3)cc2)NC(=N)N([C@H](COC(=O)NC2(C(F)(F)F)CC2)c2ccc(Cl)c(-n3ncnc3C(F)F)c2)C1=O)C(F)(F)F [Compound 308]
31 | ≥ 6.58 h | CC(C)(C)C[C@]1(c2ccc(-c3cccc(S(C)(=O)=O)c3)c(F)c2)NC(=N)N([C@H](COC(=O)NC2(C(F)(F)F)CC2)c2ccc(Cl)c(-n3ncnc3C(F)F)c2)C1=O [Compound 312]
32 | ≥ 6.58 h | CC(C)(C)C[C@]1(c2ccc(-c3cnn(C4CC4)c3)cc2Cl)NC(=N)N([C@H](COC(=O)NC2(C(F)(F)F)CC2)c2ccc(Cl)c(-n3ncnc3C(F)F)c2)C1=O [Compound 317]
33 | ≥ 6.58 h | CC(C)(C)C[C@]1(c2ccc3nc(-c4cnn(C(F)F)c4)ccc3c2)NC(=N)N([C@H](COC(=O)NC2(C(F)(F)F)CC2)c2ccc(Cl)c(-n3ncnc3C(F)F)c2)C1=O [Compound 350]
34 | ≥ 6.58 h | CC(C)(C)C[C@]1(c2ccc(-c3cn(C4CC4)nn3)c(F)c2)NC(=N)N([C@H](COC(=O)NC2(C(F)(F)F)CC2)c2ccc(Cl)c(-n3ncnc3C(F)F)c2)C1=O [Compound 352]
35 | ≥ 6.58 h | CC(C)(C)C[C@]1(c2ccc(-n3cnnc3)cc2)NC(=N)N([C@H](COC(=O)NC2(C(F)(F)F)CC2)c2ccc(Cl)c(-n3ncnc3C(F)F)c2)C1=O [Compound 359]
36 | ≥ 6.58 h | CC(C)(C)C[C@]1(c2ccc(C#Cc3cnn(C(F)F)c3)c(F)c2)NC(=N)N([C@H](COC(=O)NC2(C(F)(F)F)CC2)c2ccc(Cl)c(-n3ncnc3C(F)F)c2)C1=O [Compound 361]
37 | ≥ 6.58 h | CC(C)(C)C[C@]1(c2ccc(-c3cn[nH]n3)cc2)NC(=N)N([C@H](COC(=O)NC2(C(F)(F)F)CC2)c2ccc(Cl)c(-n3ncnc3C(F)F)c2)C1=O [Compound 372]

Same assay, conditions: human, microsomes

Row | SMILES | half-life at 1 uM
38 | CC(C)(C)C[C@]1(c2ccc(-c3cnn(C(F)F)c3)cc2)NC(=N)N([C@H](COC(=O)NC2(C(F)F)CC2)c2ccc(Cl)c(-n3ncnc3C(F)F)c2)C1=O [Compound 179] | ≥ 6.58 h
